Measured values reported in US20260158011A1 (Achieve Life Sciences, Inc., priority 2023, published 2026).
Read-outs that look alike come from different tables or passages of the source.

What was measured:
[1] = test system: adults smoking 10+ cigarettes daily; conditions: for Serious AEs: ORCA-1, pooled cytisinicline arms (n = 203)
Description: Table 13 summarizes the treatment emergent adverse events (TEAEs).

[2] = test system: adults who smoked 10 cigarettes per day; conditions: for Biochemically confirmed continuous smoking abstinence Weeks 3-6, % / Biochemically confirmed continuous smoking abstinence Weeks 9-12, %: primary outcome; for Biochemically confirmed continuous smoking abstinence Weeks 6-24, % / Biochemically confirmed continuous smoking abstinence Weeks 12-24, %: secondary outcome; for Relapse-free abstinence from week 6 to 24: intent-to-treat
Method: The trial was conducted at 17 U.S. sites. Adults aged 18 years were eligible if they currently smoked 10 cigarettes per day, had expired air carbon monoxide (CO) ≥10 ppm, and intended to quit smoking. Individuals were excluded if they used any non-cigarette tobacco product (pipe tobacco, cigars, smokeless tobacco, hookah), electronic cigarettes, smoking cessation medication (bupropion, varenicline, nortriptyline, nicotine replacement product), or marijuana (smoked or vaped) in the 28 days before randomization or planned to use them during the study. Other exclusion criteria included uncontrolled hypertension, hepatic or renal impairment, past 3-month history of acute myocardial infarction, unstable angina, cerebrovascular incident, or hospitalization for congestive heart failure, diagnosis of schizophrenia or bipolar disorder, current psychosis, suicidal ideation or suicide risk (Columbia Suicide Severity Rating Scale), (1) moderate to severe depression symptoms (Hospital Anxiety and Depression Scale score ≥11), (2) or a positive urinary screen for illicit drugs. (Full criteria in Trial Protocol).
At a screening visit, individuals provided written informed consent, completed a medical history, brief physical examination, electrocardiogram and laboratory tests, agreed to a quit date 5 to 7 days after study drug initiation, and recorded the number of cigarettes smoked daily for 7 days. At a second visit, participants who met inclusion and exclusion criteria were randomly assigned to study arm, received brief smoking cessation counseling, set their quit date within 5 to 7 days and started study medication the next day. A predetermined central computer-generated randomization sequence was used to assign participants (1:1:1) stratified by study site to receive placebo TID for 12 weeks (Arm A), 3 mg cytisinicline TID for 6 weeks followed by placebo TID for 6 weeks (Arm B), or 3 mg cytisinicline TID for 12 weeks (Arm C).
Study medication was identical-appearing tablets, containing 3 mg cytisinicline or placebo taken orally TID for 12 weeks. Participants were followed for 12 additional weeks after treatment ended. All participants received 10 minutes of brief smoking cessation behavioral support provided by trained counselors at each visit from randomization through week 24.
Assessments after randomization were conducted at in-person visits on day 2, weekly from 1 to 12 weeks, and at weeks 16, 20, and 24. Participants who discontinued study drug prematurely were encouraged to remain in the study and complete all assessment visits. Smoking status was assessed by self-report of cigarette abstinence since the last visit, measured weekly from weeks 2 through 12. Self-reported abstinence at weeks 16, 20, and 24 used the Russell criteria of not smoking more than 5 cigarettes since the last visit (3). A breath carbon monoxide (CO) level was measured at each visit. Verified abstinence required self-reported nonsmoking and a breath carbon monoxide (CO) <10 ppm. Participants not meeting these criteria or with missing data were classified as smoking.
The study had two primary endpoints. […] Study success was defined as either primary endpoint meeting statistical criterion. The secondary outcome measures were verified continuous cigarette abstinence to week 24 (weeks 3 to 24 for Arms B vs. A; weeks 9 to 24 for Arms C vs. A). A third secondary outcome measure compared the risk of relapse to smoking between weeks 6 and 24 among participants assigned to cytisinicline who achieved abstinence by week 6; these individuals were either switched to placebo at week 6 (Arm B) or continued cytisinicline to week 12 (Arm C). Other pre-specified endpoints included comparing the difference between arms in verified 7-day point-prevalence abstinence at each visit from week 2 through week 24 and assessing for evidence of effect modification for subsets defined by baseline attributes.

[3] = 1.5 mg downward titration (n = 51)
[4] = 3.0 mg downward titration (n = 50)
[5] = pooled cytisinicline arms (n = 203)
[6] = Arm B Cytisinicline 6 weeks, N = 269
[7] = Arm C Cytisinicline 12 weeks, N = 270

O=c1cccc2n1C[C@@H]1CNC[C@H]2C1 [cytisine, (−)-Cytisine]
TEAE: Abnormal dreams ([1]; 1.5 mg TID (n = 52)): 4 (8%) n (%)
TEAE: At least 1 AE ([1]; 1.5 mg TID (n = 52)): 20 (39%) n (%)
TEAE: Constipation ([1]; 1.5 mg TID (n = 52)): 1 (2%) n (%)
TEAE: Fatigue ([1]; 1.5 mg TID (n = 52)): 3 (6%) n (%)
TEAE: Headache ([1]; 1.5 mg TID (n = 52)): 6 (12%) n (%)
TEAE: Insomnia ([1]; 1.5 mg TID (n = 52)): 4 (8%) n (%)
TEAE: Nausea ([1]; 1.5 mg TID (n = 52)): 1 (2%) n (%)
TEAE: URTI ([1]; 1.5 mg TID (n = 52)): 5 (10%) n (%)
TEAE: Abnormal dreams [1, 3]: 4 (8%) n (%)
TEAE: At least 1 AE [1, 3]: 29 (57%) n (%)
TEAE: Fatigue [1, 3]: 1 (2%) n (%)
TEAE: Headache [1, 3]: 1 (2%) n (%)
TEAE: Insomnia [1, 3]: 3 (6%) n (%)
TEAE: Nausea [1, 3]: 5 (10%) n (%)
TEAE: URTI [1, 3]: 3 (6%) n (%)
TEAE: Abnormal dreams ([1]; 3.0 mg TID (n = 50)): 3 (6%) n (%)
TEAE: At least 1 AE ([1]; 3.0 mg TID (n = 50)): 21 (42%) n (%)
TEAE: Constipation ([1]; 3.0 mg TID (n = 50)): 3 (6%) n (%)
TEAE: Fatigue ([1]; 3.0 mg TID (n = 50)): 1 (2%) n (%)
TEAE: Headache ([1]; 3.0 mg TID (n = 50)): 2 (4%) n (%)
TEAE: Insomnia ([1]; 3.0 mg TID (n = 50)): 3 (6%) n (%)
TEAE: Nausea ([1]; 3.0 mg TID (n = 50)): 3 (6%) n (%)
TEAE: URTI ([1]; 3.0 mg TID (n = 50)): 3 (6%) n (%)
TEAE: Abnormal dreams [1, 4]: 7 (14%) n (%)
TEAE: At least 1 AE [1, 4]: 23 (46%) n (%)
TEAE: Fatigue [1, 4]: 2 (4%) n (%)
TEAE: Headache [1, 4]: 1 (2%) n (%)
TEAE: Insomnia [1, 4]: 4 (8%) n (%)
TEAE: Nausea [1, 4]: 3 (6%) n (%)
TEAE: URTI [1, 4]: 2 (4%) n (%)
Serious AEs [1]: no serious or severe adverse events
Serious AEs ([1]; listed as Cytisinicline): 0
TEAE: Abnormal dreams [1, 5]: 18 (9%) n (%)
TEAE: At least 1 AE [1, 5]: 93 (46%) n (%)
TEAE: Constipation [1, 5]: 4 (2%) n (%)
TEAE: Fatigue [1, 5]: 7 (3%) n (%)
TEAE: Headache [1, 5]: 10 (5%) n (%)
TEAE: Insomnia [1, 5]: 14 (7%) n (%)
TEAE: Nausea [1, 5]: 12 (6%) n (%)
TEAE: URTI [1, 5]: 13 (6%) n (%)
OR for relapse-free abstinence week 6 to 24, Arm B vs Arm C ([2]; 12-week versus 6-week cytisinicline): 1.31
Biochemically confirmed continuous smoking abstinence Weeks 3-6, % [2, 6]: 25.3%
Biochemically confirmed continuous smoking abstinence Weeks 9-12, % [2, 6]: 22.3%
Biochemically confirmed continuous smoking abstinence Weeks 6-24, % [2, 6]: 8.9%
Biochemically confirmed continuous smoking abstinence Weeks 12-24, % [2, 6]: 13.8%
OR versus placebo, continuous abstinence weeks 3 to 24 ([2]; Arm B vs. A): 3.7
OR versus placebo, continuous abstinence weeks 3 to 6 ([2]; Arm B vs. A (6-week treatment)): 8.0
Risk Difference, continuous smoking abstinence Weeks 6-24 ([2]; Arm B vs. Arm A, Cytisinicline-6 weeks vs. placebo, 95% CI 0.03, 0.09): 0.06
Risk Difference, continuous smoking abstinence Weeks 12-24 ([2]; Arm B vs. Arm A, Cytisinicline-6 weeks vs. placebo, 95% CI 0.04, 0.13): 0.09
Risk Difference, continuous smoking abstinence Weeks 9-12 ([2]; Arm B vs. Arm A, Cytisinicline-6 weeks vs. placebo, 95% CI 0.10, 0.20): 0.15
Risk Difference, continuous smoking abstinence Weeks 3-6 ([2]; Arm B vs. Arm A, Cytisinicline-6 weeks vs. placebo, 95% CI 0.16, 0.25): 0.21
Relative Risk, continuous smoking abstinence Weeks 6-24 ([2]; Arm B vs. Arm A, Cytisinicline-6 weeks vs. placebo, 95% CI 1.56, 8.50): 3.45
Relative Risk, continuous smoking abstinence Weeks 12-24 ([2]; Arm B vs. Arm A, Cytisinicline-6 weeks vs. placebo, 95% CI 1.59, 5.46): 2.87
Relative Risk, continuous smoking abstinence Weeks 9-12 ([2]; Arm B vs. Arm A, Cytisinicline-6 weeks vs. placebo, 95% CI 1.98, 5.30): 3.18
Relative Risk, continuous smoking abstinence Weeks 3-6 ([2]; Arm B vs. Arm A, Cytisinicline-6 weeks vs. placebo, 95% CI 3.26, 10.74): 5.71
NNT (number needed to treat), continuous smoking abstinence Weeks 3-6 ([2]; Arm B vs. Arm A, Cytisinicline-6 weeks vs. placebo, 95% CI 4, 7): 5
NNT (number needed to treat), continuous smoking abstinence Weeks 9-12 ([2]; Arm B vs. Arm A, Cytisinicline-6 weeks vs. placebo, 95% CI 4, 11): 7
NNT (number needed to treat), continuous smoking abstinence Weeks 12-24 ([2]; Arm B vs. Arm A, Cytisinicline-6 weeks vs. placebo, 95% CI 7, 24): 11
NNT (number needed to treat), continuous smoking abstinence Weeks 6-24 ([2]; Arm B vs. Arm A, Cytisinicline-6 weeks vs. placebo, 95% CI 10, 40): 16
Biochemically-confirmed continuous smoking abstinence, weeks 3 to 6 ([2]; Arm B: 3 mg cytisinicline TID 6 weeks then placebo 6 weeks): 25.3%
Continuous abstinence weeks 3 to 24 ([2]; Arm B: 6-week cytisinicline treatment): 8.9%
Relapse-free abstinence from week 6 to 24 ([2]; Arm B: switched to placebo at week 6): 10.4%
Biochemically confirmed continuous smoking abstinence Weeks 3-6, % [2, 7]: 22.2%
Biochemically confirmed continuous smoking abstinence Weeks 9-12, % [2, 7]: 32.6%
Biochemically confirmed continuous smoking abstinence Weeks 6-24, % [2, 7]: 11.9%
Biochemically confirmed continuous smoking abstinence Weeks 12-24, % [2, 7]: 21.1%
OR versus placebo, continuous abstinence weeks 9 to 24 ([2]; Arm C vs. A): 5.3
OR versus placebo, continuous abstinence weeks 9 to 12 ([2]; Arm C vs. A (12-week treatment)): 6.3
Risk Difference, continuous smoking abstinence Weeks 6-24 ([2]; Arm C vs. Arm A, Cytisinicline-12 weeks vs. placebo, 95% CI 0.05, 0.12): 0.09
Risk Difference, continuous smoking abstinence Weeks 12-24 ([2]; Arm C vs. Arm A, Cytisinicline-12 weeks vs. placebo, 95% CI 0.11, 0.20): 0.16
Risk Difference, continuous smoking abstinence Weeks 3-6 ([2]; Arm C vs. Arm A, Cytisinicline-12 weeks vs. placebo, 95% CI 0.13, 0.22): 0.18
Risk Difference, continuous smoking abstinence Weeks 9-12 ([2]; Arm C vs. Arm A, Cytisinicline-12 weeks vs. placebo, 95% CI 0.20, 0.30): 0.26
Relative Risk, continuous smoking abstinence Weeks 6-24 ([2]; Arm C vs. Arm A, Cytisinicline-12 weeks vs. placebo, 95% CI 2.15, 11.05): 4.59
Relative Risk, continuous smoking abstinence Weeks 12-24 ([2]; Arm C vs. Arm A, Cytisinicline-12 weeks vs. placebo, 95% CI 2.53, 8.15): 4.40
Relative Risk, continuous smoking abstinence Weeks 3-6 ([2]; Arm C vs. Arm A, Cytisinicline-12 weeks vs. placebo, 95% CI 2.842, 9.50): 5.02
Relative Risk, continuous smoking abstinence Weeks 9-12 ([2]; Arm C vs. Arm A, Cytisinicline-12 weeks vs. placebo, 95% CI 2.98, 7.58): 4.65
NNT (number needed to treat), continuous smoking abstinence Weeks 9-12 ([2]; Arm C vs. Arm A, Cytisinicline-12 weeks vs. placebo, 95% CI 3, 6): 4
NNT (number needed to treat), continuous smoking abstinence Weeks 3-6 ([2]; Arm C vs. Arm A, Cytisinicline-12 weeks vs. placebo, 95% CI 4, 8): 6
NNT (number needed to treat), continuous smoking abstinence Weeks 12-24 ([2]; Arm C vs. Arm A, Cytisinicline-12 weeks vs. placebo, 95% CI 4, 9): 6
NNT (number needed to treat), continuous smoking abstinence Weeks 6-24 ([2]; Arm C vs. Arm A, Cytisinicline-12 weeks vs. placebo, 95% CI 8, 20): 11
Biochemically-confirmed continuous smoking abstinence, weeks 9 to 12 ([2]; Arm C: 3 mg cytisinicline TID 12 weeks): 32.6%
Continuous abstinence weeks 9 to 24 ([2]; Arm C: 12-week cytisinicline treatment): 21.1%
Relapse-free abstinence from week 6 to 24 ([2]; Arm C: continued cytisinicline to week 12): 13.3%
Odds Ratio Arm B vs. Arm A, continuous smoking abstinence Weeks 6-24 ([2]; Cytisinicline 6 wk vs. placebo, 95% CI 1.5 to 10.2, P .002): 3.7
Odds Ratio Arm B vs. Arm A, continuous smoking abstinence Weeks 3-6 ([2]; Cytisinicline 6 wk vs. placebo, 95% CI 3.9 to 16.3, P <.001): 8.0
Odds Ratio Arm C vs. Arm A, continuous smoking abstinence Weeks 12-24 ([2]; Cytisinicline 12 wk vs. placebo, 95% CI 2.8 to 11.1, P <.001): 5.3
Odds Ratio Arm C vs. Arm A, continuous smoking abstinence Weeks 9-12 ([2]; Cytisinicline 12 wk vs. placebo, 95% CI 3.7 to 11.6, P <.001): 6.3
Mean total cigarette craving score (QSU-brief) ([2]; baseline to week 6, cytisinicline for 6 or 12 weeks compared to placebo): declined more rapidly
